Assay results: the supplement of paper PMC10307832

Key:
Assay in all cases: relative viability (nuclei count vs DMSO), 5 days (fraction); higher = more cells survive
EMC-BAC-2 = test system: EMC-BAC-2
Summary of the method: (§1)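 Lung cancer cell lines were seeded in 1536-well plates and dosed by pin tool the next day, with either a single drug or a fixed anchor-drug dose combined with five library-drug doses (not always all listed) spaced in √10 steps. Five days later, one step fixed the cells and stained their nuclei (final 0.05% Triton X-100, 1% formaldehyde, 1 ug/ml Hoechst), and nuclei were counted on 4× images. Relative viability is the nuclei count in treated wells divided by the count in vehicle wells, and each value is the median of duplicate plates.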

NCI-H2347 = test system: NCI-H2347
Summary of the method: as §1

NCI-H727 = test system: NCI-H727
Summary of the method: as §1

NCI-H1993 = test system: NCI-H1993
Summary of the method: as §1

NCI-H1734 = test system: NCI-H1734
Summary of the method: as §1

NCI-H2009 = test system: NCI-H2009
Summary of the method: as §1

NCI-H1915 = test system: NCI-H1915
Summary of the method: as §1

LXF-289 = test system: LXF-289
Summary of the method: as §1

EPLC-272H = test system: EPLC-272H
Summary of the method: as §1

NCI-H1563 = test system: NCI-H1563
Summary of the method: as §1

NCI-H322M = test system: NCI-H322M
Summary of the method: as §1

NCI-H2126 = test system: NCI-H2126
Summary of the method: as §1

NCI-H2023 = test system: NCI-H2023
Summary of the method: as §1

NCI-H661 = test system: NCI-H661
Summary of the method: as §1

PC-14 = test system: PC-14
Summary of the method: as §1

SW 1573 = test system: SW 1573
Summary of the method: as §1

LCLC-97TM1 = test system: LCLC-97TM1
Summary of the method: as §1

NCI-H647 = test system: NCI-H647
Summary of the method: as §1

H3255 = test system: H3255
Summary of the method: as §1

SK-LU-1 = test system: SK-LU-1
Summary of the method: as §1

HOP-62 = test system: HOP-62
Summary of the method: as §1

NCI-H2085 = test system: NCI-H2085
Summary of the method: as §1

Cc1sc2c(c1C)C(c1ccc(Cl)cc1)=N[C@@H](CC(=O)OC(C)(C)C)c1nnc(C)n1-2 [JQ1] + C[C@@H](Oc1cc(-c2cnn(C3CCNCC3)c2)cnc1N)c1c(Cl)ccc(F)c1Cl [Crizotinib] (partner 1 µM)
relative viability (EMC-BAC-2; first compound 0.04 µM): 0.737
relative viability (EMC-BAC-2; first compound 0.1265 µM): 0.651
relative viability (EMC-BAC-2; first compound 0.4 µM): 0.504
relative viability (EMC-BAC-2; first compound 1.265 µM): 0.43
relative viability (EMC-BAC-2; first compound 4 µM): 0.315
relative viability (NCI-H2347; first compound 0.04 µM): 0.673
relative viability (NCI-H2347; first compound 0.1265 µM): 0.549
relative viability (NCI-H2347; first compound 0.4 µM): 0.646
relative viability (NCI-H2347; first compound 1.265 µM): 0.555
relative viability (NCI-H2347; first compound 4 µM): 0.431
relative viability (NCI-H727; first compound 0.04 µM): 0.823
relative viability (NCI-H727; first compound 0.1265 µM): 1.02
relative viability (NCI-H727; first compound 0.4 µM): 0.631
relative viability (NCI-H727; first compound 1.265 µM): 0.338
relative viability (NCI-H727; first compound 4 µM): 0.362
relative viability (NCI-H1993; first compound 0.04 µM): 0.834
relative viability (NCI-H1993; first compound 0.1265 µM): 0.774
relative viability (NCI-H1993; first compound 0.4 µM): 0.728
relative viability (NCI-H1993; first compound 1.265 µM): 0.799
relative viability (NCI-H1993; first compound 4 µM): 0.698
relative viability (NCI-H1734; first compound 0.04 µM): 0.696
relative viability (NCI-H1734; first compound 0.1265 µM): 0.659
relative viability (NCI-H1734; first compound 0.4 µM): 0.569
relative viability (NCI-H1734; first compound 1.265 µM): 0.449
relative viability (NCI-H1734; first compound 4 µM): 0.331
relative viability (NCI-H2009; first compound 0.04 µM): 0.969
relative viability (NCI-H2009; first compound 0.1265 µM): 0.627
relative viability (NCI-H2009; first compound 0.4 µM): 0.572
relative viability (NCI-H2009; first compound 1.265 µM): 0.301
relative viability (NCI-H2009; first compound 4 µM): 0.211
relative viability (NCI-H1915; first compound 0.04 µM): 0.891
relative viability (NCI-H1915; first compound 0.1265 µM): 0.829
relative viability (NCI-H1915; first compound 0.4 µM): 0.735
relative viability (NCI-H1915; first compound 1.265 µM): 0.462
relative viability (NCI-H1915; first compound 4 µM): 0.233
relative viability (LXF-289; first compound 0.04 µM): 0.84
relative viability (LXF-289; first compound 0.1265 µM): 0.746
relative viability (LXF-289; first compound 0.4 µM): 0.743
relative viability (LXF-289; first compound 1.265 µM): 0.677
relative viability (LXF-289; first compound 4 µM): 0.479
relative viability (EPLC-272H; first compound 0.04 µM): 0.904
relative viability (EPLC-272H; first compound 0.1265 µM): 0.759
relative viability (EPLC-272H; first compound 0.4 µM): 0.885
relative viability (EPLC-272H; first compound 1.265 µM): 0.364
relative viability (EPLC-272H; first compound 4 µM): 0.37
relative viability (NCI-H1563; first compound 0.04 µM): 0.839
relative viability (NCI-H1563; first compound 0.1265 µM): 0.764
relative viability (NCI-H1563; first compound 0.4 µM): 0.881
relative viability (NCI-H1563; first compound 1.265 µM): 0.631
relative viability (NCI-H1563; first compound 4 µM): 0.615
relative viability (NCI-H322M; first compound 0.04 µM): 0.83
relative viability (NCI-H322M; first compound 0.1265 µM): 0.839
relative viability (NCI-H322M; first compound 0.4 µM): 0.856
relative viability (NCI-H322M; first compound 1.265 µM): 0.533
relative viability (NCI-H322M; first compound 4 µM): 0.458
relative viability (NCI-H2126; first compound 0.04 µM): 1.04
relative viability (NCI-H2126; first compound 0.1265 µM): 0.987
relative viability (NCI-H2126; first compound 0.4 µM): 0.901
relative viability (NCI-H2126; first compound 1.265 µM): 0.966
relative viability (NCI-H2126; first compound 4 µM): 0.754
relative viability (NCI-H2023; first compound 0.04 µM): 0.544
relative viability (NCI-H2023; first compound 0.1265 µM): 0.543
relative viability (NCI-H2023; first compound 0.4 µM): 0.485
relative viability (NCI-H2023; first compound 1.265 µM): 0.227
relative viability (NCI-H2023; first compound 4 µM): 0.158
relative viability (NCI-H661; first compound 0.04 µM): 1
relative viability (NCI-H661; first compound 0.1265 µM): 1.08
relative viability (NCI-H661; first compound 1.265 µM): 1.05
relative viability (NCI-H661; first compound 4 µM): 0.776
relative viability (PC-14; first compound 0.04 µM): 0.907
relative viability (PC-14; first compound 0.1265 µM): 0.781
relative viability (PC-14; first compound 0.4 µM): 0.776
relative viability (PC-14; first compound 1.265 µM): 0.611
relative viability (PC-14; first compound 4 µM): 0.426
relative viability (SW 1573; first compound 0.04 µM): 0.633
relative viability (SW 1573; first compound 0.1265 µM): 0.741
relative viability (SW 1573; first compound 0.4 µM): 0.678
relative viability (SW 1573; first compound 1.265 µM): 0.48
relative viability (SW 1573; first compound 4 µM): 0.385
relative viability (LCLC-97TM1; first compound 0.1265 µM): 0.285
relative viability (LCLC-97TM1; first compound 0.4 µM): 0.19
relative viability (LCLC-97TM1; first compound 1.265 µM): 0.118
relative viability (LCLC-97TM1; first compound 4 µM): 0.117
relative viability (NCI-H647; first compound 0.04 µM): 1.03
relative viability (NCI-H647; first compound 0.1265 µM): 0.486
relative viability (NCI-H647; first compound 0.4 µM): 0.276
relative viability (NCI-H647; first compound 1.265 µM): 0.0835
relative viability (NCI-H647; first compound 4 µM): 0.0629
relative viability (H3255; first compound 0.04 µM): 0.828
relative viability (H3255; first compound 0.1265 µM): 0.715
relative viability (H3255; first compound 0.4 µM): 0.741
relative viability (H3255; first compound 1.265 µM): 0.316
relative viability (H3255; first compound 4 µM): 0.221
relative viability (SK-LU-1; first compound 0.04 µM): 0.96
relative viability (SK-LU-1; first compound 0.1265 µM): 0.615
relative viability (SK-LU-1; first compound 0.4 µM): 0.481
relative viability (SK-LU-1; first compound 1.265 µM): 0.193
relative viability (SK-LU-1; first compound 4 µM): 0.148
relative viability (HOP-62; first compound 0.04 µM): 0.714
relative viability (HOP-62; first compound 0.1265 µM): 0.711
relative viability (HOP-62; first compound 0.4 µM): 0.299
relative viability (HOP-62; first compound 1.265 µM): 0.119
relative viability (HOP-62; first compound 4 µM): 0.11
relative viability (NCI-H2085; first compound 0.04 µM): 0.745
relative viability (NCI-H2085; first compound 0.1265 µM): 0.629
relative viability (NCI-H2085; first compound 0.4 µM): 0.651
relative viability (NCI-H2085; first compound 1.265 µM): 0.458
relative viability (NCI-H2085; first compound 4 µM): 0.448
